The target in this assay is Human HDAC6 (Homo sapiens (Human), UniProt Q9UBN7). The assay is described as follows: HDAC6 enzymatic activity assay (Caliper endpoint or fluorogenic format). It is filed as biochemical. To be noted: in vitro enzymatic.
Chain of Human HDAC6 (Q9UBN7 whole entry): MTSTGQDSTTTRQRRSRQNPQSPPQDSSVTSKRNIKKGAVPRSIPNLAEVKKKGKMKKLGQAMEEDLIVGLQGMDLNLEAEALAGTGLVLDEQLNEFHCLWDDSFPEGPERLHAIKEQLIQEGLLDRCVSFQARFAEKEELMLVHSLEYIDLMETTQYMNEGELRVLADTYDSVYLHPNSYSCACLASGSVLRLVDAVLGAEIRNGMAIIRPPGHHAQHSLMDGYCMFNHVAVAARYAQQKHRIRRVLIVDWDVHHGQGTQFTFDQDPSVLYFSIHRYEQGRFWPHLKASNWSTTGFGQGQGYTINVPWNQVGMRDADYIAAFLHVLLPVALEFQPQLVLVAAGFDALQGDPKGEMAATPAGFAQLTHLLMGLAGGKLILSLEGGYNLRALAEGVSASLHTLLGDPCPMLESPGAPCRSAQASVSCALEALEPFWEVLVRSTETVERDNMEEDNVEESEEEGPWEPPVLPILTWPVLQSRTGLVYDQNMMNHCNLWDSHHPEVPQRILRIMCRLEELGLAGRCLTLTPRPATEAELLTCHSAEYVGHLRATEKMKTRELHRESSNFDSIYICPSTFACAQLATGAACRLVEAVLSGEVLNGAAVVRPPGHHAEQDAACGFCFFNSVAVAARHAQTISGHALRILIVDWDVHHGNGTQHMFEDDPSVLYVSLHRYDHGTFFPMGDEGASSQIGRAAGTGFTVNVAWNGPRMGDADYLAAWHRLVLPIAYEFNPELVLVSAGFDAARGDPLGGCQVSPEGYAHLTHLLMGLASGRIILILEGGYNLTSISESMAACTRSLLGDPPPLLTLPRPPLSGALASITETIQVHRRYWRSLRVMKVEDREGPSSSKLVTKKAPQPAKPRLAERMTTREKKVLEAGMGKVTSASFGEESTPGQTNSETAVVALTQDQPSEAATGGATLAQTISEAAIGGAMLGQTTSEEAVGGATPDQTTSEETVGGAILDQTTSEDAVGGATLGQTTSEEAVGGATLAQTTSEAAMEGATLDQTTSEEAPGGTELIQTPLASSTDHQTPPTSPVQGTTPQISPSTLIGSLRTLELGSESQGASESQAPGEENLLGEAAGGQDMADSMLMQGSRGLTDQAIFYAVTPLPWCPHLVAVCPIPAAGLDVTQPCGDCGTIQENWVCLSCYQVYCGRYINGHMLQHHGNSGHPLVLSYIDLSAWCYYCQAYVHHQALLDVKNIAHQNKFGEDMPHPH

Broadly, the IC50 is the concentration that gives 50% inhibition. Higher therefore signals weaker potency. In turn, `Cn1ncc2cc(OCc3ncc(-c4nnc(C(F)F)o4)cn3)ccc21` [Compound 138] came in with an IC50 of 1 to 100 nM.

Regarding `Cc1ncc(F)c(OCc2ccc(-c3nnc(C(F)F)o3)cn2)n1` [Compound 81], the half-inhibitory concentration (IC50) is 1 to 100 nM.

Consider `Cn1ncc2cc(OCc3ncc(-c4nnc(C(F)F)o4)cc3F)ccc21` [Compound 139, 2-(difluoromethyl)-5-(5-fluoro-6-(((1-methyl-1H-indazol-5-yl)oxy)methyl)pyridin-3-yl)-1,3,4-oxadiazole], for which the IC50 is 1 to 100 nM.

`N#Cc1ccccc1OCc1ncc(-c2nnc(C(F)F)o2)cc1F` [Compound 127]: the IC50 fell in the range of 1 to 100 nM. Regarding `FC(F)c1nnc(-c2ccc(COc3ccc(C(F)(F)F)cn3)nc2)o1` [Compound 94], the IC50 lay within 100 to 1000 nM. The figure for `Fc1cc(-c2nnc(C(F)F)o2)cnc1COc1ccc2nccnc2c1` [Compound 151] is 1 to 100 nM. Regarding `FC(F)c1nnc(-c2ccc(COc3ccccc3-c3ccccc3)nc2)o1` [Compound 187, 2-(6-(([1,1′-biphenyl]-2-yloxy)methyl)pyridin-3-yl)-5-(difluoromethyl)-1,3,4-oxadiazole], the IC50 lay within 1000 to 10000 nM.

For the compound `Fc1cc(-c2nnc(C(F)F)o2)cnc1COc1ccc2cncnc2c1` [Compound 180, 2-(difluoromethyl)-5-(5-fluoro-6-((quinazolin-7-yloxy)methyl)pyridin-3-yl)-1,3,4-oxadiazole], the IC50 was in the range of 1 to 100 nM.

In turn, `FC(F)c1nnc(-c2ccc(COCC3CC4CCC(C3)N4)nc2)o1` (stereo not shown) [Compound 23] had an IC50 of 100 to 1000 nM. As for `Cc1noc2cc(OCc3ncc(-c4nnc(C(F)F)o4)cn3)ccc12` [Compound 136], the IC50 lay in the range of 1 to 100 nM. Take `Cc1noc2cc(OCc3ncc(-c4nnc(C(F)F)o4)cc3F)ccc12` [Compound 137, 6-((5-(5-(difluoromethyl)-1,3,4-oxadiazol-2-yl)-3-fluoropyridin-2-yl)methoxy)-3-methylbenzo[d]isoxazole]: the IC50 fell in the range of 1 to 100 nM. `Cn1cc2cc(OCc3ncc(-c4nnc(C(F)F)o4)cc3F)ccc2n1` [Compound 178, 2-(Difluoromethyl)-5-(5-fluoro-6-(((2-methyl-2H-indazol-5-yl)oxy)methyl)pyridin-3-yl)-1,3,4-oxadiazole] gave an IC50 of 1 to 100 nM. On to `FC(F)c1nnc(-c2ccc(COc3ccncn3)nc2)o1` [Compound 104], for which the IC50 fell in the range of 1 to 100 nM.

With `FC(F)c1nnc(-c2ccc(COc3cccc(-c4nc5ccccc5[nH]4)c3)nc2)o1` [Compound 206], the IC50 lay within 1 to 100 nM. `FC(F)c1nnc(-c2cnc(COc3cccnc3)nc2)o1` [Compound 162]: the 50% inhibitory concentration (IC50) is 1 to 100 nM. `Cn1cnc2cc(OCc3ncc(-c4nnc(C(F)F)o4)cn3)ccc21` [Compound 146] gave an IC50 of 1 to 100 nM. The figure for `FC(F)c1nnc(-c2ccc(C(F)(F)Oc3cccc4ccccc34)nc2)o1` [Compound 14, 2-(6-(difluoro(naphthalen-1-yloxy)methyl)pyridin-3-yl)-5-(difluoromethyl)-1,3,4-oxadiazole] is 100 to 1000 nM; for `Fc1cc(-c2nnc(C(F)F)o2)cnc1COc1ccc2ncccc2c1` [Compound 153] it is 1 to 100 nM. Compound `FC(F)c1nnc(-c2ccc(COc3cnc4ccnn4c3)nc2)o1` [Compound 183, 2-(Difluoromethyl)-5-(6-((pyrazolo[1,5-a]pyrimidin-6-yloxy)methyl)pyridin-3-yl)-1,3,4-oxadiazole] yielded an IC50 of 1 to 100 nM. `Fc1cc(-c2nnc(C(F)F)o2)cnc1COc1cccc2cncnc12` [Compound 161] returned an IC50 of 1 to 100 nM. Under `Fc1ccc(OCc2ncc(-c3nnc(C(F)F)o3)cn2)cc1` [Compound 166, 2-(difluoromethyl)-5-(2-((4-fluorophenoxy)methyl)pyrimidin-5-yl)-1,3,4-oxadiazole] stands 1 to 100 nM; under `FC(F)c1nnc(-c2ccc(COc3ccnc(-c4ccccc4)c3)nc2)o1` [Compound 186, 2-(Difluoromethyl)-5-(6-(((2-phenylpyridin-4-yl)oxy)methyl)pyridin-3-yl)-1,3,4-oxadiazole], 1 to 100 nM; under `CN1C[C@@]2(COCc3ccc(-c4nnc(C(F)F)o4)cn3)C[C@@H]1CO2` [Compound 25], 100 to 1000 nM. `Cc1nc2cc(OCc3ncc(-c4nnc(C(F)F)o4)cn3)ccc2o1` [Compound 140]: the IC50 is 1 to 100 nM. `FC(F)c1nnc(-c2cnc(COc3cccc4cncnc34)nc2)o1` [Compound 160]: the IC50 fell in the range of 1 to 100 nM. Compound `Fc1cc(-c2nnc(C(F)F)o2)cnc1COc1cccc2ncccc12` [Compound 132] registered an IC50 of 1 to 100 nM. `Fc1cc(-c2nnc(C(F)F)o2)cnc1COc1ccc2ccccc2c1` [Compound 182, 2-(Difluoromethyl)-5-(5-fluoro-6-((naphthalen-2-yloxy)methyl)pyridin-3-yl)-1,3,4-oxadiazole] showed an IC50 of 1 to 100 nM.

Compound `FC(F)c1nnc(-c2ccc(COc3ncccn3)nc2)o1` [Compound 78] yielded an IC50 of 100 to 1000 nM. Turning to `FC(F)c1nnc(-c2ccc(COc3cccc(-c4ccccc4)c3)nc2)o1` [Compound 188, 2-(6-(([1,1′-Biphenyl]-3-yloxy)methyl)pyridin-3-yl)-5-(difluoromethyl)-1,3,4-oxadiazole], the IC50 was 100 to 1000 nM.

As for `Cc1ccc2nnc(OCc3ccc(-c4nnc(C(F)F)o4)cn3)n2c1` [Compound 89], the IC50 lay within 1 to 100 nM. Compound `CNC(=O)c1cccc(OCc2ccc(-c3nnc(C(F)F)o3)cn2)c1` [Compound 197, 3-((5-(5-(difluoromethyl)-1,3,4-oxadiazol-2-yl)pyridin-2-yl)methoxy)-N-methylbenzamide] yielded an IC50 of 1 to 100 nM.

With `N#Cc1ccc(COCc2ccc(-c3nnc(C(F)F)o3)cn2)s1` [Compound 120], the IC50 was in the range of 100 to 1000 nM. Under `FC(F)c1nnc(-c2cnc(COc3cccc4nccnc34)nc2)o1` [Compound 158] stands 1 to 100 nM. The figure for `Cn1cnc2ccc(OCc3ccc(-c4nnc(C(F)F)o4)cn3)cc21` [Compound 213] is 1 to 100 nM; for `Fc1cc(-c2nnc(C(F)F)o2)cnc1COc1ccc2ncncc2c1` [Compound 181, 2-(Difluoromethyl)-5-(5-fluoro-6-((quinazolin-6-yloxy)methyl)pyridin-3-yl)-1,3,4-oxadiazole] it is 1 to 100 nM; for `Fc1ccc(OCc2ncc(-c3nnc(C(F)F)o3)cn2)cc1F` [Compound 22] it is 1 to 100 nM. `CN1[C@@H]2CC[C@H]1C[C@H](OCc1ccc(-c3nnc(C(F)F)o3)cn1)C2` [Compound 113] returned an IC50 of 1000 to 10000 nM. Turning to `FC(F)c1nnc(-c2ccc(COC3CC4CCC(C3)O4)nc2)o1` (stereo not shown) [Compound 109], the half-inhibitory concentration (IC50) was 100 to 1000 nM. With `FC(F)c1nnc(-c2ccc(CO[C@@H]3C[C@H]4CC[C@@H](C3)O4)nc2)o1` [Compound 110], the 50% inhibitory concentration (IC50) lay within 100 to 1000 nM. `Fc1ccc(OCc2ncc(-c3nnc(C(F)F)o3)cc2F)c(F)c1` [Compound 131] came in with an IC50 of 1 to 100 nM. `C#Cc1cccc(OCc2ncc(-c3nnc(C(F)F)o3)cc2F)c1` [Compound 128] returned a concentration for half-maximal inhibition (IC50) of 1 to 100 nM. Compound `O=C(Nc1ccccc1)c1cccc(OCc2ccc(-c3nnco3)cn2)c1` [Compound 196, 3-((5-(1,3,4-oxadiazol-2-yl)pyridin-2-yl)methoxy)-N-phenylbenzamide] showed a 50% inhibitory concentration (IC50) of 1 to 100 nM.

The compound `N#Cc1cccc(OCc2ncc(-c3nnc(C(F)F)o3)cc2F)c1` [Compound 167] yielded an IC50 of 1 to 100 nM. Under `FC(F)c1nnc(-c2ccc(COc3cccnn3)nc2)o1` [Compound 103] stands 100 to 1000 nM; under `Cc1nc2cc(OCc3ncc(-c4nnc(C(F)F)o4)cc3F)ccc2o1` [Compound 141], 1 to 100 nM; under `Cn1c(-c2ccc(OCc3ccc(-c4nnc(C(F)F)o4)cn3)cc2)nc2ccccc21` [Compound 200], 1 to 100 nM. The compound `Cc1cccc2c(OCc3ccc(-c4nnc(C(F)F)o4)cn3)ncnc12` [Compound 96] showed an IC50 of 1 to 100 nM. `FC(F)c1nnc(-c2ccc(COc3ccc4c(c3)CCNC4)nc2)o1` [Compound 170] displayed an IC50 of 100 to 1000 nM. In turn, `CN1CCc2cc(OCc3ccc(-c4nnc(C(F)F)o4)cn3)ccc2C1` [Compound 121] registered an IC50 of 100 to 1000 nM. `Cn1c(-c2cccc(OCc3ccc(-c4nnc(C(F)F)o4)cn3)c2)nc2ccccc21` [Compound 201] displayed a concentration for half-maximal inhibition (IC50) of 1 to 100 nM. The figure for `Fc1cc(-c2nnc(C(F)F)o2)cnc1COc1cccc2ncncc12` [Compound 179, 2-(Difluoromethyl)-5-(5-fluoro-6-((quinazolin-5-yloxy)methyl)pyridin-3-yl)-1,3,4-oxadiazole] is 1 to 100 nM.

`Fc1ccc(OCc2ncc(-c3nnc(C(F)F)o3)cc2F)cc1F` [Compound 129] had an IC50 of 1 to 100 nM.

With `Fc1cncnc1OCc1ccc(-c2nnc(C(F)F)o2)cn1` [Compound 107], the IC50 lay in the range of 1 to 100 nM. Compound `FC(F)c1nnc(-c2ccc(COc3ccc(-c4ccccc4)cc3)nc2)o1` [Compound 185, 2-(6-(([1,1′-Biphenyl]-4-yloxy)methyl)pyridin-3-yl)-5-(difluoromethyl)-1,3,4-oxadiazole] displayed a 50% inhibitory concentration (IC50) of 1 to 100 nM. `FC(F)c1nnc(-c2ccc(COc3cnc(C(F)(F)F)nc3)nc2)o1` [Compound 205] came in with an IC50 of 1 to 100 nM. As to `FC(F)c1nnc(-c2cnc(COc3ccc4ccncc4c3)nc2)o1` [Compound 156], the IC50 lay in the range of 1 to 100 nM.

For `CC(Oc1ccc(F)cc1)c1ccc(-c2nnc(C(F)F)o2)cn1` (stereo not shown) [AAA, 2-(Difluoromethyl)-5-(6-(1-(4-fluorophenoxy)ethyl)pyridin-3-yl)-1,3,4-oxadiazole], the IC50 is 1000 to 10000 nM.

`FC(F)c1nnc(-c2ccc(COc3cccc4ccncc34)nc2)o1` [Compound 33] gave an IC50 of 1 to 100 nM. The figure for `Fc1cc(-c2nnc(C(F)F)o2)cnc1COc1cccc2nccnc12` [Compound 159] is 1 to 100 nM.

Compound `C#Cc1ccccc1OCc1ncc(-c2nnc(C(F)F)o2)cn1` [Compound 168] displayed an IC50 of 1 to 100 nM.

Regarding `FC(F)c1nnc(-c2cnc(COc3ccc4ncccc4c3)nc2)o1` [Compound 152], the IC50 was in the range of 1 to 100 nM.

As for `Cn1ccc(OCc2ccc(-c3nnc(C(F)F)o3)cn2)n1` [Compound 66], the IC50 was 1 to 100 nM. The figure for `FC(F)c1nnc(-c2cnc(COc3ccc4ocnc4c3)nc2)o1` [Compound 142] is 1 to 100 nM; for `N#Cc1ccc(OCc2ncc(-c3nnc(C(F)F)o3)cc2F)cc1` [Compound 165] it is 1 to 100 nM.
